# According to patent US20100247659A1, “PHENYLPHTHALIMIDE ANALOGS FOR TREATING DIABETIC MACULAR EDEMA” (Charlesson, LLC, priority 2007, published 2010):
# Legend:
# [1] = system: HUVECs; assay: Tube formation assay on matrigel; assay type: cell-based, human; conditions: 5 μM, 16 h
# Method: Eight-well slide chambers were coated with matrigel and at 37° C. and 5% CO2 for 30 min. HUVECs were then seeded at 30,000 cells/well in EGM-II containing either vehicle (0.5% DMSO), 5 μM of Compound 4 or thalidomide and incubated at 37° C. and 5% CO2 for 16 h. After incubation, slides were washed in PBS, fixed in 100% methanol for 10 s, and stained with DiffQuick solution II for 2 min. To analyze tube formation, each well was digitally photographed using a ×2.5 objective.
# Representative images were captured after incubation of vehicle, thalidomide and Compound 4 for 16 h.
# [2] = system: STZ-diabetic rats; conditions: cited from earlier work
smiles,measurement,setting,value
O=C1CCC(N2C(=O)c3ccccc3C2=O)C(=O)N1 (stereo not drawn) [thalidomide],inhibition of tube formation,[1],did not show any inhibitory activity
same,VEGF in ocular fluid,[2],blocked the increase of VEGF in ocular fluid
same,thickening of retinal capillary basement membrane,[2],inhibited the thickening of retinal capillary basement membrane
